For orientation: pIC50 means the IC50 on a negative log10 scale, so that one unit is a factor of ten. By pKi is commonly meant −log10 of the Ki, conventionally taken in molar units.

pIC50, pKi: −log10 of the molar value.

In assay [1] the target is Adenosine receptor A2a (Homo sapiens, UniProt P29274). Put plainly: DRUGMATRIX: Adenosine A2A radioligand binding (ligand: […]). The assay is classed as cell membranes, HEK293, Membrane. The note with it: Not Active = under 50% inhibition at 10 µM; for IC50 / Ki: hek293.
Assay [2] concerns the target 5-hydroxytryptamine receptor 2B (Homo sapiens, UniProt P41595). It is filed as cell membranes, CHO-K1, Membrane. To be noted: for IC50 / Ki: cho-k1; for pIC50: read-out: IC50; for pKi: read-out: Ki. For all read-outs here: in other assays of this panel Not Active means under 50% inhibition at 10 µM.
Assay [3] can be described thus: DRUGMATRIX: Leukotriene, BLT (LTB4) radioligand binding (ligand: [3H]LTB4). It is filed as cell membranes, Membrane. The note with it: u-937, Not Active = under 50% inhibition at 10 µM.
Assay [4] deals with T1, Neuropeptide Y receptor type 2 (Homo sapiens, UniProt P49146).
T1 sequence (P49146 whole entry): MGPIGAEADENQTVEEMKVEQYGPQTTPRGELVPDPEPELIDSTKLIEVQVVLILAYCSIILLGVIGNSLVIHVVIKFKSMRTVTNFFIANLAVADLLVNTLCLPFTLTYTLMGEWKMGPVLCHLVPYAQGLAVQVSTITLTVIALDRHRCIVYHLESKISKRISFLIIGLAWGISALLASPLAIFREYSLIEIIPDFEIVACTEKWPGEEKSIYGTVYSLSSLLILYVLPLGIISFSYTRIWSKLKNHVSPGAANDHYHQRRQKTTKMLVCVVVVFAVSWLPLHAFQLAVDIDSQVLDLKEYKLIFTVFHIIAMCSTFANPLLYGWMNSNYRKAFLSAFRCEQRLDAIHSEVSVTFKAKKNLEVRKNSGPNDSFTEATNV
The assay is classed as cell membranes, Membrane. To be noted: kan-ts.

The target of assay [5] is cGMP-specific 3',5'-cyclic phosphodiesterase (Homo sapiens, UniProt O76074). Briefly: DRUGMATRIX: Phosphodiesterase PDE5 enzyme inhibition (substrate: [3H]cGMP + cGMP). It is filed as tissue-based, Platelet. The note with it: Not Active = under 50% inhibition at 10 µM; for IC50 / Ki: platelet.

Chain of Adenosine receptor A2a (P29274 whole entry): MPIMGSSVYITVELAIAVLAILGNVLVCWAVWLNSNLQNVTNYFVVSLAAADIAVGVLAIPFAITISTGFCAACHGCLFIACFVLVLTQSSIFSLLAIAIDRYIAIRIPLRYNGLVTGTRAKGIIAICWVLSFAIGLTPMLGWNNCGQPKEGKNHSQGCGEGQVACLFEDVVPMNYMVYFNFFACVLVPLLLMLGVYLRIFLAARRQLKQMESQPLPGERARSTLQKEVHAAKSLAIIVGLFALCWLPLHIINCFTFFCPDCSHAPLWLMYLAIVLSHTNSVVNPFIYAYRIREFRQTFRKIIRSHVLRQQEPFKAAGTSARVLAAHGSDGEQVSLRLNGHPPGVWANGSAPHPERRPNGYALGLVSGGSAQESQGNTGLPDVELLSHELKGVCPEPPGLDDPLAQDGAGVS
Chain of 5-hydroxytryptamine receptor 2B (P41595 whole entry): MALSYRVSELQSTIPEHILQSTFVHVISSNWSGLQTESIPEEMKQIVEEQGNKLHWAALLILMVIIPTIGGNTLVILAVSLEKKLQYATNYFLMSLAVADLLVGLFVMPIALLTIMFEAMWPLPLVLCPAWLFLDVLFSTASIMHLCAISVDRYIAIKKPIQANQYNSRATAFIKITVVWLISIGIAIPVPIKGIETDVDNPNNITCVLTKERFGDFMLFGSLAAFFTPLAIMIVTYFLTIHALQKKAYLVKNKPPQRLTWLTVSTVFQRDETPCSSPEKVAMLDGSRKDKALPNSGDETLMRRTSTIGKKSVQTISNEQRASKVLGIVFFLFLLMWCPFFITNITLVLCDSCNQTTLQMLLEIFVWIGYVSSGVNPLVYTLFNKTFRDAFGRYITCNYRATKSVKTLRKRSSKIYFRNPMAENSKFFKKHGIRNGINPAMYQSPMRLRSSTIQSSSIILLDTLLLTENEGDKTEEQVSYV

Take `CCCCC(=O)N(Cc1ccc(-c2ccccc2-c2nnn[nH]2)cc1)[C@H](C(=O)O)C(C)C`: the IC50 result in assay [1], in assay [2], in assay [3], in assay [4] and in assay [5] was “Not Active” each time. The Ki result in assay [3] is given as “Not Active”.
On to `O=C(O)COc1ccc(C(=O)c2cccs2)c(Cl)c1Cl`, for which the IC50 entry in assay [1], in assay [2], in assay [3], in assay [4] and in assay [5] was “Not Active” each time. In assay [3], the Ki result is “Not Active”.
For the compound `CN1[C@@H]2CC[C@H]1C[C@@H](OC(c1ccccc1)c1ccccc1)C2` [BENZTROPINE], the IC50 entry in assay [1], in assay [4] and in assay [5] was “Not Active” throughout. Further, the pIC50 in assay [2] was 6.70. In addition, the negative logarithm of the Ki (pKi) in assay [2] is 6.90.
Turning to `C[C@@](Cc1ccc(O)c(O)c1)(NN)C(=O)O.O` [CARBIDOPA], the IC50 entry in assay [1], in assay [2], in assay [3], in assay [4] and in assay [5] was “Not Active” in each case. In addition, in assay [3], the Ki entry is recorded as “Not Active”.
With `CN1CCN(C2=Nc3cc(Cl)ccc3Nc3ccccc32)CC1` [CLOZAPINE], the IC50 result in assay [1], in assay [4] and in assay [5] was “Not Active” throughout.
As to `CC(C)NC[C@@H](O)COc1cccc2ccccc12` [DEXPROPRANOLOL], the IC50 result in assay [1], in assay [4] and in assay [5] was “Not Active” each time.
As for `CC(C)NC[C@H](O)COc1cccc2ccccc12` [LEVOPROPRANOLOL], the IC50 result in assay [1], in assay [4] and in assay [5] was “Not Active” each time.
Regarding `O=C(O)CCCCC1CCSS1` (stereo not drawn) [LIPOIC ACID, ALPHA], the IC50 result in assay [1], in assay [2], in assay [3], in assay [4] and in assay [5] was “Not Active” each time. Also, in assay [3], the Ki entry is recorded as “Not Active”.
As to `CN(C)C(=O)C(CCN1CCC(O)(c2ccc(Cl)cc2)CC1)(c1ccccc1)c1ccccc1` [LOPERAMIDE], the IC50 result in assay [1], in assay [4] and in assay [5] was “Not Active” in each case. Moreover, the negative logarithm of the IC50 (pIC50) in assay [2] was 5.39. Besides, the pKi in assay [2] was 5.58.
Turning to `Clc1ccc(COC(Cn2ccnc2)c2ccc(Cl)cc2Cl)c(Cl)c1` (stereo not drawn) [MICONAZOLE], in assay [2], the pIC50 is 5.26 and the negative-log Ki (pKi) is 5.45. Besides, the IC50 result in assay [4] was “Not Active”. The IC50 entry in assay [5] is listed as “Not Active”.
Turning to `Oc1ccc2c3c1O[C@H]1[C@@H](O)CC[C@@]4(O)[C@@H](C2)N(CC2CCC2)CC[C@]314` [NALBUPHINE], the IC50 entry in assay [1], in assay [2], in assay [4] and in assay [5] was “Not Active” throughout.
With `C[C@]12C=CC(=O)C=C1CC[C@@H]1[C@@H]2C(=O)C[C@@]2(C)[C@H]1CC[C@]2(O)C(=O)CO` [PREDNISONE], the IC50 entry in assay [1], in assay [2], in assay [3], in assay [4] and in assay [5] was “Not Active” in each case. In addition, the Ki entry in assay [3] was “Not Active”.
Regarding `OCCOCCN1CCN(C2=Nc3ccccc3Sc3ccccc32)CC1` [QUETIAPINE], the IC50 entry in assay [1], in assay [4] and in assay [5] was “Not Active” each time.
Turning to `COC(=O)[C@H]1[C@H]2C[C@@H]3c4[nH]c5cc(OC)ccc5c4CCN3C[C@H]2C[C@@H](OC(=O)c2cc(OC)c(OC)c(OC)c2)[C@@H]1OC` [RESERPINE], the IC50 entry in assay [1], in assay [2], in assay [3], in assay [4] and in assay [5] was “Not Active” in each case. Also, the Ki result in assay [3] was “Not Active”.
`O=C(O)c1ccccc1O` [SALICYLIC ACID]: the IC50 entry in assay [1], in assay [2], in assay [3], in assay [4] and in assay [5] was “Not Active” each time. Besides, in assay [3], the Ki result is reported as “Not Active”.
`C[S+]([O-])c1ccc(-c2nc(-c3ccncc3)c(-c3ccc(F)cc3)[nH]2)cc1` (stereo not drawn) [SB-203580]: the results for the pIC50 in assay [1] (read-out: IC50) and in assay [5] (read-out: IC50) were 5.22 and 4.94, respectively. For the same compound, in assay [1] (read-out: Ki), the pKi was 5.47. The IC50 entry in assay [2] and in assay [4] was “Not Active” in each case.
In the case of `CC1CCC(NC(=O)N(CCCl)N=O)CC1` (stereo not drawn) [SEMUSTINE], the IC50 result in assay [1], in assay [2], in assay [3], in assay [4] and in assay [5] was “Not Active” each time. Besides, in assay [3], the Ki result is “Not Active”.
For `O=C1C[C@@H]2OCC=C3CN4CC[C@]56c7ccccc7N1[C@H]5[C@H]2[C@H]3C[C@H]46` [STRYCHNINE], the IC50 entry in assay [1], in assay [2], in assay [3], in assay [4] and in assay [5] was “Not Active” in each case. In addition, the Ki entry in assay [3] is on record as “Not Active”.
For the compound `C[N+](C)(C)CCOC(=O)CCC(=O)OCC[N+](C)(C)C.[Cl-].[Cl-]` [SUCCINYLCHOLINE CHLORIDE], the IC50 result in assay [1], in assay [2], in assay [3], in assay [4] and in assay [5] was “Not Active” throughout. Further, in assay [3], the Ki result is “Not Active”.
As for `Nc1ccc(S(=O)(=O)NC(=O)c2ccccc2)cc1` [SULFABENZAMIDE], the IC50 entry in assay [1], in assay [2], in assay [3], in assay [4] and in assay [5] was “Not Active” in each case. Moreover, the Ki result in assay [3] is on record as “Not Active”.
Consider `CCCCCCCCNC(C)C(O)c1ccc(SC(C)C)cc1` (stereo not drawn) [SULOCTIDIL], for which the IC50 result in assay [1], in assay [4] and in assay [5] was “Not Active” in each case. Besides, the results for the negative logarithm of the IC50 (pIC50) in assay [2] and in assay [3] (read-out: IC50) were 6.03 and 5.84, respectively. Further, the figures for the pKi in assay [2] and in assay [3] (read-out: Ki) were 6.22 and 6.44, respectively.
Take `O=c1[nH]c(=O)n(C2CCCO2)cc1F` (stereo not drawn) [TEGAFUR]: the IC50 entry in assay [1], in assay [2], in assay [3], in assay [4] and in assay [5] was “Not Active” each time. For the same compound, in assay [3], the Ki entry is recorded as “Not Active”.
For the compound `CC(=N)S` [THIOACETAMIDE], the IC50 result in assay [1], in assay [2], in assay [3], in assay [4] and in assay [5] was “Not Active” each time. Also, the Ki entry in assay [3] is given as “Not Active”.
For `Cc1ccc(C(=O)c2ccc(CC(=O)O)n2C)cc1` [TOLMETIN], the IC50 result in assay [1], in assay [2], in assay [3], in assay [4] and in assay [5] was “Not Active” throughout. For the same compound, the Ki result in assay [3] is “Not Active”.
In the case of `CC(=O)OCC(COC(C)=O)OC(C)=O` [TRIACETIN], the IC50 result in assay [1], in assay [2], in assay [3], in assay [4] and in assay [5] was “Not Active” in each case. The Ki entry in assay [3] is recorded as “Not Active”.
Consider `CN1CCN(CCCN2c3ccccc3Sc3ccc(C(F)(F)F)cc32)CC1` [TRIFLUOPERAZINE], for which the IC50 entry in assay [1], in assay [2], in assay [3], in assay [4] and in assay [5] was “Not Active” in each case. Also, the Ki entry in assay [3] is on record as “Not Active”.
For TRANSPLATIN, the IC50 entry in assay [1], in assay [2], in assay [3], in assay [4] and in assay [5] was “Not Active” each time. Besides, the Ki result in assay [1], in assay [2], in assay [3], in assay [4] and in assay [5] was “Not Active” in each case.
ZIRCONIUM(IV) CHLORIDE: the IC50 result in assay [1], in assay [2], in assay [3], in assay [4] and in assay [5] was “Not Active” throughout. Besides, the Ki result in assay [1], in assay [2], in assay [3], in assay [4] and in assay [5] was “Not Active” each time.
